Here are results for five molecules from patent publication US8501722B2, “Methods and compositions for treating bacterial infection” (priority 2009, dated 2013).

Values joined by “and” are separate entries in the source; they are usually repeats but may differ in a detail not shown here. Equal values may be shown once. Read-outs that look alike come from different tables or passages of the source.

One assay has as its system SK(+)GAS. As to the kind of experiment: GAS growth by OD600 nm of culture. The format is cell-based, Group A Streptococcus. Particulars: for activity at 0.1 µg/mL: read-out: GAS Growth (% control), compound conc. 0.1 μg/ml; for activity at 0.3 µg/mL: read-out: GAS Growth (% control), compound conc. 0.3 μg/ml; for activity at 2.5 µg/mL: read-out: GAS Growth (% control), compound conc. 2.5 μg/ml; for activity at 5 µg/mL: read-out: GAS Growth (% control), compound conc. 5 μg/ml; for activity at 10 µg/mL: read-out: GAS Growth (% control), compound conc. 10 μg/ml; for activity at 20 µg/mL: read-out: GAS Growth (% control), compound conc. 20 μg/ml; for activity at 40 µg/mL: read-out: GAS Growth (% control), compound conc. 40 μg/ml; for activity at 70 µg/mL: read-out: GAS Growth (% control), compound conc. 70 μg/ml; for activity at 30 µg/mL: read-out: GAS Growth (% control), compound conc. 30 μg/ml; for activity at 50 µg/mL: read-out: GAS Growth (% control), compound conc. 50 μg/ml.

Experimental for streptokinase (SK): SK− Ecoli and SKCtr1's dose response relationship with these compounds were then examined.
The effects of 10 hit compounds out of the 23 identified were further tested by dose response assays. […] These compounds were tested for inhibition of ska expression by measuring SK activity in supernatants of GAS exposed to the test compound or control vehicle alone (DMSO). SK(+)GAS were cultured with hit compounds at a dose range of 10 nM to 100 μM at 37° C. for 16-20 hours. Supernatants of SK(+)GAS cultures were measured for SK activity using chromogenic substrate 2403 (Diapharma group Inc., West Chester, Ohio), according to the manufacturer's instruction and simultaneously monitored for nonspecific effects on GAS growth by measuring OD600 nm.
The positive compounds identified in dose response assays are subjected to SK assay to identify compounds inhibiting SK expression in SK(+)GAS. Briefly, SK(+)GAS is grown at the presence of hit compounds at a dose range determined by dose response assays within which SK(−) GAS growth is inhibited less than 10% while SKKanGAS growth is inhibited more than 50% under 20 μg/ml kanamycin.

Take `C=CCn1c(SCCOC)nc2c(c1=O)C(C)(C)Cc1cc(OC)ccc1-2` [CCG-203576, 3-allyl-8-methoxy-2-(2-methoxyethylthio)-5,5-dimethyl-5,6-dihydrobenzo[h]quinazolin-4(3H)-one]: in the assay on streptokinase (SK) (compound conc. 0.1 μg/ml), the “SK Expression (% control)” value is 99 % control and 93 % control. Also, in the assay on streptokinase (SK) (compound conc. 0.3 μg/ml), the “SK Expression (% control)” value is 99 % control and 98 % control. The “SK Expression (% control)” value in the assay on streptokinase (SK) (compound conc. 1.0 μg/ml) is 99 % control and 89 % control. Moreover, in the assay with streptokinase (SK) (compound conc. 3 μg/ml), the “SK Expression (% control)” value is 100 % control and 61 % control. Further, the “SK Expression (% control)” value in the assay on streptokinase (SK) (compound conc. 5 μg/ml) stood at 30 % control. Moreover, in the assay with streptokinase (SK) (compound conc. 20 μg/ml), the “SK Expression (% control)” value turned out to be 19 % control. For the same molecule, in the assay on streptokinase (SK) (compound conc. 40 μg/ml), the “SK Expression (% control)” value turned out to be 11 % control. Further, in the assay on SK(+)GAS (Streptococcus), the activity at 0.1 µg/mL was found to be 102%, the activity at 0.3 µg/mL turned out to be 101%, the activity at 2.5 µg/mL is 100% and the activity at 5 µg/mL turned out to be 99%. Also, in the assay on SK(+)GAS (Streptococcus), the activity at 10 µg/mL worked out at 98%, the activity at 20 µg/mL stood at 99%, the activity at 40 µg/mL was 101% and the activity at 70 µg/mL was 105%. Moreover, the “GAS Growth (% control)” value in the assay with SK(+)GAS (compound conc. 2.5 μg/ml) came to 100 % control.
For `C=CCn1c(SCc2ccccc2)nc2c(c1=O)C1(CCCCC1)Cc1ccccc1-2` [compound 575097], the “SK Expression (% control)” value is 92 % control and 88 % control in the assay on streptokinase (SK) (compound conc. 10 μg/ml); 82 % control and 79 % control in the assay on streptokinase (SK) (compound conc. 20 μg/ml); 79 % control and 77 % control in the assay on streptokinase (SK) (compound conc. 30 μg/ml); 72 % control and 74 % control in the assay with streptokinase (SK) (compound conc. 40 μg/ml); 70 % control and 67 % control in the assay with streptokinase (SK) (compound conc. 50 μg/ml); 63 % control with streptokinase (SK) (compound conc. 60 μg/ml). For the same molecule, the “SK Expression (% control)” value with streptokinase (SK) (compound conc. 70 μg/ml) was found to be 65 % control. Also, the activity at 10 µg/mL with SK(+)GAS (Streptococcus) stood at 89%. Moreover, in the assay with SK(+)GAS (Streptococcus), the activity at 20 µg/mL was 88%. Moreover, the activity at 30 µg/mL with SK(+)GAS (Streptococcus) came out at 88%. Further, in the assay on SK(+)GAS (Streptococcus), the activity at 40 µg/mL is 86%. Further, the activity at 50 µg/mL with SK(+)GAS (Streptococcus) stood at 86%.
Consider `C=CCn1c(SCc2ccc(OC)cc2)nc2c(c1=O)C1(CCCCC1)Cc1ccccc1-2` [CCG-102483, 3-allyl-2-(4-methoxybenzylthio)-3H-spiro[benzo[h]quinazoline-5,1′-cyclohexan]-4(6H)-one], for which the “SK Expression (% control)” value in the assay with streptokinase (SK) (compound conc. 5 μg/ml) turned out to be 119 % control; with streptokinase (SK) (compound conc. 40 μg/ml), 80 % control. Moreover, the activity at 5 µg/mL with SK(+)GAS (Streptococcus) was found to be 104%. Besides, in the assay with SK(+)GAS (Streptococcus), the activity at 40 µg/mL was determined as 115%.
For `C=CCn1c(SCC(=O)OCC)nc2c(c1=O)C(C)(C)Cc1ccccc1-2` [1S-30398], the “SK Expression (% control)” value in the assay on streptokinase (SK) (compound conc. 5 μg/ml) is 42 % control; in the assay with streptokinase (SK) (compound conc. 10 μg/ml), 36 % control; in the assay on streptokinase (SK) (compound conc. 20 μg/ml), 38 % control; in the assay on streptokinase (SK) (compound conc. 40 μg/ml) it was 39 % control. Moreover, in the assay with SK(+)GAS (Streptococcus), the activity at 5 µg/mL amounted to 98%. The activity at 10 µg/mL in the assay on SK(+)GAS (Streptococcus) came out at 98%. For the same molecule, the activity at 20 µg/mL in the assay on SK(+)GAS (Streptococcus) is 99%. The activity at 40 µg/mL with SK(+)GAS (Streptococcus) is 111%.
For the molecule `C=CCn1c(SCCOC)nc2c(c1=O)C1(CCCCC1)Cc1ccccc1-2` [CCG-102493, 3-allyl-2-(2-methoxyethylthio)-3H-spiro[benzo[h]quinazoline-5,1′-cyclohexan]-4(6H)-one], the “SK Expression (% control)” value was 75 % control in the assay with streptokinase (SK) (compound conc. 0.1 μg/ml); 98 % control in the assay with streptokinase (SK) (compound conc. 0.3 μg/ml); 54 % control in the assay on streptokinase (SK) (compound conc. 1.0 μg/ml); 101 % control in the assay on streptokinase (SK) (compound conc. 2.5 μg/ml); 51 % control in the assay on streptokinase (SK) (compound conc. 3 μg/ml); 98 % control and 50 % control with streptokinase (SK) (compound conc. 5 μg/ml). In addition, the “SK Expression (% control)” value in the assay on streptokinase (SK) (compound conc. 30 μg/ml) was 64 % control and 42 % control; in the assay on streptokinase (SK) (compound conc. 50 μg/ml), 49 % control; in the assay with streptokinase (SK) (compound conc. 60 μg/ml), 52 % control and 27 % control; in the assay on streptokinase (SK) (compound conc. 70 μg/ml) it was 52 % control. Besides, in the assay with SK(+)GAS (Streptococcus), the activity at 0.1 µg/mL was found to be 99%. Besides, the activity at 0.3 µg/mL in the assay on SK(+)GAS (Streptococcus) came to 103%. In addition, in the assay with SK(+)GAS (Streptococcus), the activity at 2.5 µg/mL turned out to be 93%. Further, the activity at 5 µg/mL in the assay with SK(+)GAS (Streptococcus) was found to be 92%. The activity at 10 µg/mL in the assay on SK(+)GAS (Streptococcus) amounted to 94%. For the same molecule, the activity at 30 µg/mL in the assay with SK(+)GAS (Streptococcus) worked out at 110%. The activity at 50 µg/mL in the assay on SK(+)GAS (Streptococcus) came out at 123%. In addition, the activity at 60 µg/mL in the assay with SK(+)GAS (Streptococcus, read-out: GAS Growth (% control), compound conc. 60 μg/ml) is 125%. Besides, the activity at 70 µg/mL in the assay with SK(+)GAS (Streptococcus) turned out to be 129%.
